This is an account of results in PMC12340070, “A novel modulator of IL-6R prevents inflammation-induced preterm birth and improves newborn outcome” (EMBO Molecular Medicine, 2025).

For data set [1], the system named is ERK1/2. As to the kind of experiment: ERK1/2 phosphorylation in HEK-Blue IL-6 cells (immunoblot). The format is cell-based, human. To be noted: for p-ERK 1/2 phospho/total: 10 min, densitometry. As for the experimental part:
(§1) For RT-qPCR experiments, cells were plated in 6-well plates at 70% of confluence and starved overnight. Cells were treated respectively with HSJ633, HSJ630, HSJ631, HSJ634, HSJ635, HSJ639 (1 × 10^−6 M), or TCZ (3.44 μM, based on validated doses (Sahraoui et al, [2014])) for TNF-α expression. For hIL-1, hIL-6, and hTNF-α expression, cells were treated with HSJ633 using concentrations ranging from 10^−11 to 10^−4 M, allowing for equilibrium over 15 min. Cells were then treated with […] of IL-6 for 6 h for both experiments. Cell lysis was performed by adding RIBOzol. Samples were stored at −20 °C until analysis by quantitative PCR. To determine the degree of phosphorylation of different proteins (STAT3, ERK, AKT, and p38), HEK-Blue IL-6 cells were treated with HSJ633 (10^−6 M), TCZ (3.44 uM) or vehicle for 30 min in DMEM only. […] For p38 activation, 25 min of stimulation with IL-6 was required. The wells were charged with radioimmunoprecipitation assay buffer (RIPA) at a concentration of 1×, cOmplete EDTA-free Protease Inhibitor Cocktail final concentration 1×, and phenylmethanesulfonyl fluoride (PMSF) 1 mM. Samples were shaken for 30 min followed by centrifugation at 12,000 RPM at 4 °C for 20 min to harvest the proteins. Proteins were stored at −80 °C until analysis by immunoblotting.
(§2) A total of 15 μL of protein from HEK-Blue IL-6 cells combined with Laemmli-SDS 1× (reducing) was loaded onto SDS-PAGE gel and electro-transferred onto polyvinylidene difluoride membranes. After blocking with BSA 5%-TBST for 1 h, membranes were incubated with the following antibodies (Ab): either mouse anti-phospho-STAT3 (1:1000), rabbit anti-phospho-AKT (1:1000), rabbit anti-phospho-ERK1/2 (1:1000), rabbit anti-phospho-p38 (1:1000), rabbit anti-cytochrome c oxidase 4 (1:5000) or mouse anti-GAPDH (1:20,000, Proteintech). After washing, membranes were incubated for 1 h with secondary antibodies conjugated to HRP (1:3000 Anti-rabbit IgG, HRP-linked Antibody and 1:5000 Goat Anti-Mouse IgG (H + L)-HRP Conjugate). Samples were normalized by membrane stripping (15 g glycine, 1 g SDS, 10 mL Tween-20 at pH 2,2) and incubation with Ab (mouse anti-STAT3 (1:1000), rabbit anti-AKT (1:1000), rabbit anti-ERK1/2 (1:1000) or rabbit anti-p38 (1:1000)). After washing, membranes were incubated for 1 h with secondary antibodies conjugated to HRP (1:3000 Anti-rabbit IgG, HRP-linked antibody and 1:5000 goat anti-mouse IgG (H + L)-HRP Conjugate). Western Lightning Plus ECL or Clarity MAX Western ECL Substrate were used for protein detection using the ChemiDoc MP, and densitometric analysis were completed with ImageLab from Bio-Rad Laboratories.

Data set [2] deals with AKT. Put plainly: AKT phosphorylation in HEK-Blue IL-6 cells (immunoblot). To be noted: for p-AKT phospho/total: 10 min, densitometry. Type of data set: cell-based, human. As for the experimental part:
as §1, §2
For orientation: A western blot detects proteins with antibodies after separation by electrophoresis.

Data set [3] relates to STAT3. Put plainly: STAT3 phosphorylation in HEK-Blue IL-6 cells (immunoblot). The format is cell-based, human. To be noted: for p-STAT3 phospho/total: 10 min, densitometry. As for the experimental part:
as §1, §2

The subject of data set [4] is preterm birth in pregnant women. The conditions noted are these: pregnancies prospectively reported following exposure; ref Hoeltzenbein et al, 2016; cited from earlier work. The source says:
Complete or partial inhibition of the IL-6 receptor by HSJ633 reduces maternal inflammation and thus prematurity levels.

In data set [5] the test system is murine IL-6R (Ba/F3-gp130-mIL-6R). To be noted: ref Lokau et al, 2020; cited from earlier work. The source says: HSJ633 has been formulated based on the human IL-6 receptor. […] Both Tocilizumab and MR-16 act as orthosteric antagonists, competitively interfering with IL-6 for receptor occupancy (Lokau et al, [2020]). The ...
Data set [6] relates to p38. As to the kind of experiment: p38 phosphorylation in HEK-Blue IL-6 cells (immunoblot). Type of data set: cell-based, human. To be noted: for p-p38 phospho/total: densitometry. The protocol: For RT-qPCR experiments, cells were plated in 6-well plates at 70% of confluence and starved overnight. Cells were treated respectively with HSJ633, HSJ630, HSJ631, HSJ634, HSJ635, HSJ639 (1 × 10^−6 M), or TCZ (3.44 μM, based on validated doses (Sahraoui et al, [2014])) for TNF-α expression. For hIL-1, hIL-6, and hTNF-α expression, cells were treated with HSJ633 using concentrations ranging from 10^−11 to 10^−4 M, allowing for equilibrium over 15 min. Cells were then treated with […] of IL-6 for 6 h for both experiments. Cell lysis was performed by adding RIBOzol. Samples were stored at −20 °C until analysis by quantitative PCR. To determine the degree of phosphorylation of different proteins (STAT3, ERK, AKT, and p38), HEK-Blue IL-6 cells were treated with HSJ633 (10^−6 M), TCZ (3.44 uM) or vehicle for 30 min in DMEM only. Human IL-6 (3.86 nM) was added to the medium for 15 min to stimulate IL-6R pathways leading to STAT3, ERK, and AKT activation. For p38 activation, 25 min of stimulation with IL-6 was required. The wells were charged with radioimmunoprecipitation assay buffer (RIPA) at a concentration of 1×, cOmplete EDTA-free Protease Inhibitor Cocktail final concentration 1×, and phenylmethanesulfonyl fluoride (PMSF) 1 mM. Samples were shaken for 30 min followed by centrifugation at 12,000 RPM at 4 °C for 20 min to harvest the proteins. Proteins were stored at −80 °C until analysis by immunoblotting.
as §2

The mark [7] stands for this setting: HEK-Blue IL-6, IL-6 3.86 nM, HSJ633 1 μM, TCZ 3.44 μM.

On to “Tocilizumab: IL-6R orthosteric antagonist monoclonal antibody”, for which the “p-ERK 1/2 phospho/total” value came to 0.11 in data set [1] (average), 0.12 in data set [1] (replicate 2 (633-2 marked Outliers)) and 0.09 in data set [1] (replicate 3). For the same substance, in data set [1] (setting [7]), the “ERK1/2 phosphorylation, result in words” value is reported as “blocked”. Further, the values for the p-AKT phospho/total in data set [2] (average), in data set [2] (replicate 2) and in data set [2] (replicate 3) were 0.06, 0.0565 and 0.06, respectively. Further, in data set [2] (setting [7]), the “AKT phosphorylation, result in words” value is given as “blocked”. In addition, the p-STAT3 phospho/total in data set [3] (mean (Moyenne)) stood at 0.57; in data set [3] (replicate 2), 0.67; in data set [3] (replicate 3) it was 0.46. Besides, the “STAT3 phosphorylation, result in words” value in data set [3] (setting [7]) is “blocked”. In addition, in data set [4], the “increase rate in preterm birth vs general population” value is reported as 31.1%. Also, the “proliferation and activation of STAT3 in Ba/F3-gp130-mIL-6R” value in data set [5] is “no hindrance on the proliferation and activation of STAT3”. The “p38 phosphorylation, result in words” value in data set [6] (setting [7]) is “blocked”. The p-p38 phospho/total is 0.66 in data set [6] (average), 0.67 in data set [6] (replicate 1) and 0.65 in data set [6] (replicate 2).
